In US8741930B2 (Bridge Pharma, Inc., priority 2008, dated 2014):
Where two headings read alike, the source gives them in different places.

What was measured:
histamine wheal response = assay: Antihistaminic activity in vivo: histamine-induced wheal after oral dosing; design: species or system rats
Protocol: Male rats (150-200 g) were starved overnight and twelve hours after dorsal depilation, the animals were orally pretreated with the test compound(s). Four dorsal test areas were marked with permanent ink, carefully avoiding the area closest to the spine. Exactly 60 min after the dosing of the test compound, two intradermal injections of histamine (50 microliter; 1.0 mg/ml of histamine di-HCl) were performed, one on each side on the back of the animal. Two intradermal injections of the vehicle for the histamine solution were also performed. Evans blue dye (20 mg/kg) was injected iv 1 minute prior to the intra-dermal injections of histamine and the histamine vehicle. Twenty minutes were allowed for the wheal response to fully develop, whereupon the animals were euthanized and the dorsal skin containing the intradermal wheals were deflected. The blue spotted areas were measured in square millimeters and the duplicate vehicle wheal responses were averaged. In vehicle-treated animals, the wheal area, on average, was increased by histamine by 98 mm^2. The inhibition was calculated in percent difference from this baseline value.

tear flow [1] = assay: Tear flow, phenol red thread (modified Schirmer's test) after ocular instillation; type: in vivo, mice; conditions: for Effect on tear flow: topical administration to the eyes of laboratory animals; for Tear flow, length of red area of thread, Mean ± SEM: 0.07% solution, 0.05 mL twice daily, 45 min after 5th instillation, N=8
Protocol: All instillations were performed twice daily and consisted of 0.05 mL. A total of five instillations were administered. Tear measurements were performed 45 minutes after the first drug instillation on Day 3, by carefully placing the bent end of a Zone-Quick phenol red impregnated cotton thread (FCI Ophthalmics, Pembrooke, Mass.) at the intercanthus of the eye and holding it in place for 30 seconds. After removal, the length of the red area of the thread was measured in millimeters. During tear measurements, all animals were lightly anesthetized with isoflurane in order to reduce movement and stress.

Maximal solubility = type: physicochemical
Description: Ocular formulations of norketotifen to be used by individuals suffering from a dry eye syndrome may be hypotonic or isotonic. Thus, the acceptable osmolality may range from about 150 mOsm to about 350 mOsm.

[2] = target: muscarinic receptors (antimuscarinic activity); conditions: Wolff et al. 2007; cited from earlier work
tear flow [3] = conditions: U.S. Pat. No. 7,247,623; cited from earlier work

## O=C1Cc2ccccc2C(=C2CCNCC2)c2ccsc21 (racemic) [Norketotifen]
Histamine wheal response; Rattus norvegicus, 1 mg/kg oral, versus vehicle histamine effect
  inhibition at 1 mg/kg: 6%
Histamine wheal response; Rattus norvegicus, 10 mg/kg oral, versus vehicle histamine effect
  inhibition at 10 mg/kg: 83%
Histamine wheal response; rats, oral
  Absorption after oral administration: well absorbed
Tear flow [1]; 45 minutes after the 5th treatment
  Statistical significance of effect in modified Schirmer's test: statistically significant effects
Tear flow [1]
  Effect on tear flow: increase tear flow

## CN1CCC(=C2c3ccccc3CC(=O)c3sccc32)CC1.O=C(O)/C=C/C(=O)O [KETOTIFEN HF, reference compound]
Tear flow [1]
  Tear flow, length of red area of thread, Mean ± SEM: 4.25 ± 0.250 mm

## CN1CCC(=C2c3ccccc3CC(=O)c3sccc32)CC1 [Ketotifen, reference compound]
Tear flow [1]
  Effect on tear flow: not to increase tear flow

## O=C(O)/C=C/C(=O)O.O=C1Cc2ccccc2C(=C2CCNCC2)c2ccsc21 [norketotifen hydrogen fumarate]
Tear flow [1]
  Tear flow, length of red area of thread, Mean ± SEM: 4.62 ± 0.263 mm
Maximal solubility; in saline
  Maximal solubility: 4500 µg/mL
Maximal solubility; in water
  Maximal solubility: 2700 µg/mL

## CN(C)CC/C=C1/c2ccccc2COc2ccc(CC(=O)O)cc21 [olopatadine]
[2]
  IC50: 1740 nM
Tear flow [3]
  Effect on tear flow: reduce tear flow
